`CCOC(=O)c1ccc(-c2nc(COc3ccc(COc4nn(-c5ccccc5)cc4C=O)cc3OC)c(C)o2)o1` [Example 243, ethyl 5-{4-[(4-{[(4-formyl-1-phenyl-1H-pyrazol-3-yl)oxy]methyl}-2-methoxyphenoxy)methyl]-5-methyl-1,3-oxazol-2-yl}-2-furancarboxylate] showed a melting point of 143 to 145 °C.
`CCOC(=O)Cc1ccc(-c2nc(COc3ccc(COc4nn(-c5ccccc5)cc4/C=C/c4coc(C(C)(C)C)n4)cc3OC)c(C)o2)cc1` [Example 368, ethyl {4-[4-({4-[({4-[(E)-2-(2-tert-butyl-1,3-oxazol-4-yl)ethenyl]-1-phenyl-1H-pyrazol-3-yl}oxy)methyl]-2-methoxyphenoxy}methyl)-5-methyl-1,3-oxazol-2-yl]phenyl}acetate] gave a melting point of 126 to 129 °C.
In the case of `COc1cc(COc2nn(-c3ccccc3)cc2/C=C/c2cscn2)ccc1OCc1nc(-c2ccco2)oc1C` [Example 111 (E form), 2-(2-furyl)-4-({2-methoxy-4-[({1-phenyl-4-[(E)-2-(1,3-thiazol-4-yl)ethenyl]-1H-pyrazol-3-yl}oxy)methyl]phenoxy)methyl)-5-methyl-1,3-oxazole], the melting point is reported as 136 to 137 °C.
For `COC(=O)c1cc(-c2nc(COc3ccc(COc4nn(-c5ccccc5)cc4C=O)cc3OC)c(C)o2)ccc1OC` [Example 256, methyl 5-{4-[(4-{[(4-formyl-1-phenyl-1H-pyrazol-3-yl)oxy]methyl}2-methoxyphenoxy)methyl]-5-methyl-1,3-oxazol-2-yl}-2-methoxybenzoate], the melting point was 165 to 166 °C.
`COc1cc(COc2cc(/C=C/C(=O)O)n(-c3ccccc3)n2)ccc1OCc1nc(-c2ccccc2)oc1C` [Example 300, (E)-3-(3-{[3-methoxy-4-(5-methyl-2-phenyl-1,3-oxazol-4-ylmethoxy)benzyl]oxy}-1-phenyl-1H-pyrazol5-yl)-2-propenoic acid] gave a melting point of 194 to 195 °C.
`COc1cc(COc2nn(C)cc2C(C)=O)ccc1OCc1nc(-c2ccccc2)oc1C` [Example 270, 1-(3-{[3-methoxy-4-(5-methyl-2-phenyl-1,3-oxazol-4-ylmethoxy)benzyl]oxy}-1-methyl-1H-pyrazol-4-yl)ethanone] showed a melting point of 170 to 171 °C.
In the case of `COc1cc(COc2nn(-c3ccccc3)cc2/C=C/c2cnco2)ccc1OCc1nc(-c2ccco2)oc1C` [Example 114, 2-(2-furyl)-4-({2-methoxy-4-[({4-[(E)-2-(1,3-oxazol-5-yl)ethenyl]-1-phenyl-1H-pyrazol-3-yl}oxy)methyl]phenoxy}methyl)-5-methyl-1,3-oxazole], the melting point is reported as 137 to 138 °C.
Molecule `COc1cc(COc2cc(/C=C/C(=O)O)n(-c3ccccc3)n2)ccc1OCc1nc(-c2ccco2)oc1C` [Example 136, (2E)-3-{3-[(4-{[2-(2-furyl)-5-methyl-1,3-oxazol-4-yl]methoxy}-3-methoxybenzyl)oxy]-1-phenyl-1H-pyrazol-5-yl}-2-propenoic acid] has a melting point of 191 to 192 °C.
`CCOP(=O)(CCc1cc(OCc2ccc(OCc3nc(-c4ccco4)oc3C)c(OC)c2)nn1-c1ccccc1)OCC` showed a melting point of 76 to 77 °C.
For `Cc1oc(-c2ccccc2)nc1COc1ccc(OCc2oc(-c3ccccc3)nc2/C=C/C(=O)O)cc1` [Example 261, (2E)-3-[5-({4-[(5-methyl-2-phenyl-1,3-oxazol-4-yl)methoxy]phenoxy}methyl)-2-phenyl-1,3-oxazol-4-yl]-2-propenoic acid], the melting point was 209 to 210 °C.
`COc1cc(OCc2nc(-c3ccco3)oc2C)ccc1COc1nn(Cc2ccccc2)cc1C=O` [Example 54, 1-benzyl-3-[(4-{[2-(2-furyl)-5-methyl-1,3-oxazol-4-yl]methoxy}-2-methoxybenzyl)oxy]-1H-pyrazole-4-carbaldehyde] gave a melting point of 147 to 148 °C.
For `CCOC(=O)/C=C/c1nc(COc2ccc(COc3nn(-c4ccccc4)cc3C=O)cc2OC)c(C)o1` [Example 313, ethyl (2E)-3-{4-[(4-{[(4-formyl-1-phenyl-1H-pyrazol-3-yl)oxy]methyl}-2-methoxyphenoxy)methyl]-5-methyl-1,3-oxazol-2-yl}-2-propenoate], the melting point was 150 to 151 °C.

Reference: patent publication US7368578B2, “Five-membered heterocyclic compounds” (Takeda Pharmaceutical Company Limited, priority 2002, dated 2008)
